Results published in PubChem BioAssay AID2060883 (Molecular Pharmacology Branch, DTP, NCI, 2025).

System: 843782-103-R-J1-PDC complex spheroid viability
Assay: Anticancer human tumor 843782-103-R-J1-PDC patient-derived lung adenocarcinoma cell line growth inhibition [RAS]
Details: for IC50: curve of first compound; for viability, T/C: stronger effect = lower value
Outline: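 Multi-cell-type spheroids: tumor cells plus HUVEC endothelial cells and mesenchymal stem cells. RAS-pathway inhibitors were combined with targeted agents, each dosed in half-log steps down from clinical Cmax, or from 10 microM when Cmax was unknown.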

[1] = second compound 0.000949 µM, first compound 0.00316 µM
[2] = second compound 0.000949 µM, first compound 0.01 µM
[3] = second compound 0.000949 µM, first compound 0.0316 µM
[4] = second compound 0.000949 µM, first compound 0.1 µM
[5] = second compound 0.000949 µM, first compound 0.316 µM
[6] = second compound 0.000949 µM, first compound 1 µM
[7] = second compound 0.003 µM, first compound 0.00316 µM
[8] = second compound 0.003 µM, first compound 0.01 µM
[9] = second compound 0.003 µM, first compound 0.0316 µM
[10] = second compound 0.003 µM, first compound 0.1 µM
[11] = second compound 0.003 µM, first compound 0.316 µM
[12] = second compound 0.003 µM, first compound 1 µM
[13] = second compound 0.00949 µM, first compound 0.00316 µM
[14] = second compound 0.00949 µM, first compound 0.01 µM
[15] = second compound 0.00949 µM, first compound 0.0316 µM
[16] = second compound 0.00949 µM, first compound 0.1 µM
[17] = second compound 0.00949 µM, first compound 0.316 µM
[18] = second compound 0.00949 µM, first compound 1 µM
[19] = second compound 0.03 µM, first compound 0.00316 µM
[20] = second compound 0.03 µM, first compound 0.01 µM
[21] = second compound 0.03 µM, first compound 0.0316 µM
[22] = second compound 0.03 µM, first compound 0.1 µM
[23] = second compound 0.03 µM, first compound 0.316 µM
[24] = second compound 0.03 µM, first compound 1 µM
[25] = second compound 0.0949 µM, first compound 0.00316 µM
[26] = second compound 0.0949 µM, first compound 0.01 µM
[27] = second compound 0.0949 µM, first compound 0.0316 µM
[28] = second compound 0.0949 µM, first compound 0.1 µM
[29] = second compound 0.0949 µM, first compound 0.316 µM
[30] = second compound 0.0949 µM, first compound 1 µM
[31] = second compound 0.3 µM, first compound 0.00316 µM
[32] = second compound 0.3 µM, first compound 0.01 µM
[33] = second compound 0.3 µM, first compound 0.0316 µM
[34] = second compound 0.3 µM, first compound 0.1 µM
[35] = second compound 0.3 µM, first compound 0.316 µM
[36] = second compound 0.3 µM, first compound 1 µM
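Note: viability read after seven days of compound exposure.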

## CC1(C)CCC(Nc2ncc(C(F)(F)F)c(-c3c[nH]c4c(P(C)(C)=O)c(C#N)ccc34)n2)CN1 (stereo unspecified) + CCn1c(-c2cccnc2C(C)OC)c2c3cc(ccc31)N1CCOC(CC(NC(=O)C(C(C)C)N(C)C(=O)C3(F)CCN(C(=O)C#CC(C)(C)N(C)C)CC3)C(=O)N3CCCC(N3)C(=O)OCC(C)(C)C2)C1
Second compound 0.000949 µM
  IC50: 2.53 nM
Second compound 0.003 µM
  IC50: 2.29 nM
Second compound 0.00949 µM
  IC50: 3.46 nM
Second compound 0.03 µM
  IC50: 3.86 nM
Second compound 0.0949 µM
  IC50: 2.63 nM
Second compound 0.3 µM
  IC50: 1.67 nM
Second compound 0.000949 µM, first compound 0.000949 µM
  viability, T/C: 78.2%
Second compound 0.000949 µM, first compound 0.003 µM
  viability, T/C: 45.2%
Second compound 0.000949 µM, first compound 0.00949 µM
  viability, T/C: 29.4%
Second compound 0.000949 µM, first compound 0.03 µM
  viability, T/C: 26.6%
Second compound 0.000949 µM, first compound 0.0949 µM
  viability, T/C: 22.9%
Second compound 0.000949 µM, first compound 0.3 µM
  viability, T/C: 21.8%
Second compound 0.003 µM, first compound 0.000949 µM
  viability, T/C: 59.9%
Second compound 0.003 µM, first compound 0.003 µM
  viability, T/C: 46.3%
Second compound 0.003 µM, first compound 0.00949 µM
  viability, T/C: 32.3%
Second compound 0.003 µM, first compound 0.03 µM
  viability, T/C: 21%
Second compound 0.003 µM, first compound 0.0949 µM
  viability, T/C: 17.9%
Second compound 0.003 µM, first compound 0.3 µM
  viability, T/C: 19.4%
Second compound 0.00949 µM, first compound 0.000949 µM
  viability, T/C: 59.6%
Second compound 0.00949 µM, first compound 0.003 µM
  viability, T/C: 51.8%
Second compound 0.00949 µM, first compound 0.00949 µM
  viability, T/C: 34%
Second compound 0.00949 µM, first compound 0.03 µM
  viability, T/C: 20.2%
Second compound 0.00949 µM, first compound 0.0949 µM
  viability, T/C: 19.5%
Second compound 0.00949 µM, first compound 0.3 µM
  viability, T/C: 19%
Second compound 0.03 µM, first compound 0.000949 µM
  viability, T/C: 62.9%
Second compound 0.03 µM, first compound 0.003 µM
  viability, T/C: 55.1%
Second compound 0.03 µM, first compound 0.00949 µM
  viability, T/C: 33%
Second compound 0.03 µM, first compound 0.03 µM
  viability, T/C: 22.6%
Second compound 0.03 µM, first compound 0.0949 µM
  viability, T/C: 18.8%
Second compound 0.03 µM, first compound 0.3 µM
  viability, T/C: 18%
Second compound 0.0949 µM, first compound 0.000949 µM
  viability, T/C: 69.3%
Second compound 0.0949 µM, first compound 0.003 µM
  viability, T/C: 46.8%
Second compound 0.0949 µM, first compound 0.00949 µM
  viability, T/C: 31.5%
Second compound 0.0949 µM, first compound 0.03 µM
  viability, T/C: 18.5%
Second compound 0.0949 µM, first compound 0.0949 µM
  viability, T/C: 17.3%
Second compound 0.0949 µM, first compound 0.3 µM
  viability, T/C: 17.6%
Second compound 0.3 µM, first compound 0.000949 µM
  viability, T/C: 57.7%
Second compound 0.3 µM, first compound 0.003 µM
  viability, T/C: 41.8%
Second compound 0.3 µM, first compound 0.00949 µM
  viability, T/C: 24.4%
Second compound 0.3 µM, first compound 0.03 µM
  viability, T/C: 15.5%
Second compound 0.3 µM, first compound 0.0949 µM
  viability, T/C: 13.6%
Second compound 0.3 µM, first compound 0.3 µM
  viability, T/C: 14.4%

## CCN1CCN(Cc2ccc(Nc3ncc(F)c(-c4cc(F)c5nc(C)n(C(C)C)c5c4)n3)nc2)CC1 + CCn1c(-c2cc(N3CCN(C)CC3)cnc2C(C)OC)c2c3cc(ccc31)-c1csc(n1)CC(NC(=O)C1CC1C)C(=O)N1CCCC(N1)C(=O)OCC(C)(C)C2
Second compound 0.000949 µM
  IC50: 531 nM
Second compound 0.003 µM
  IC50: 122 nM
Second compound 0.00949 µM
  IC50: < 3.16 nM
Second compound 0.03 µM
  IC50: < 3.16 nM
Second compound 0.0949 µM
  IC50: < 3.16 nM
Second compound 0.3 µM
  IC50: < 3.16 nM
[1]
  viability, T/C: 79.5%
[2]
  viability, T/C: 83.1%
[3]
  viability, T/C: 78.2%
[4]
  viability, T/C: 73%
[5]
  viability, T/C: 63.4%
[6]
  viability, T/C: 34.5%
[7]
  viability, T/C: 64%
[8]
  viability, T/C: 66.3%
[9]
  viability, T/C: 57.1%
[10]
  viability, T/C: 52.2%
[11]
  viability, T/C: 41.8%
[12]
  viability, T/C: 29.9%
[13]
  viability, T/C: 45.9%
[14]
  viability, T/C: 42.9%
[15]
  viability, T/C: 34.4%
[16]
  viability, T/C: 31.1%
[17]
  viability, T/C: 30.1%
[18]
  viability, T/C: 20.8%
[19]
  viability, T/C: 24.5%
[20]
  viability, T/C: 22.6%
[21]
  viability, T/C: 21%
[22]
  viability, T/C: 20%
[23]
  viability, T/C: 18.2%
[24]
  viability, T/C: 17%
[25]
  viability, T/C: 17.9%
[26]
  viability, T/C: 16.1%
[27]
  viability, T/C: 15.8%
[28]
  viability, T/C: 15.2%
[29]
  viability, T/C: 16.1%
[30]
  viability, T/C: 14.2%
[31]
  viability, T/C: 17.1%
[32]
  viability, T/C: 12.4%
[33]
  viability, T/C: 14%
[34]
  viability, T/C: 12.3%
[35]
  viability, T/C: 13.9%
[36]
  viability, T/C: 12.3%

## C=CC(=O)N1CCN(c2nc(OCC3CCCN3C)nc3c(F)c(-c4nc(N)cc(C)c4C(F)(F)F)c(Cl)cc23)C(C)C1 (stereo unspecified) + CCn1c(-c2cc(N3CCN(C)CC3)cnc2C(C)OC)c2c3cc(ccc31)-c1csc(n1)CC(NC(=O)C1CC1C)C(=O)N1CCCC(N1)C(=O)OCC(C)(C)C2
Second compound 0.000949 µM
  IC50: > 1000 nM
Second compound 0.003 µM
  IC50: > 1000 nM
Second compound 0.00949 µM
  IC50: < 3.16 nM
Second compound 0.03 µM
  IC50: < 3.16 nM
Second compound 0.0949 µM
  IC50: < 3.16 nM
Second compound 0.3 µM
  IC50: < 3.16 nM
[1]
  viability, T/C: 64.2%
[2]
  viability, T/C: 64.9%
[3]
  viability, T/C: 62.9%
[4]
  viability, T/C: 66.8%
[5]
  viability, T/C: 71.8%
[6]
  viability, T/C: 67.1%
[7]
  viability, T/C: 57.2%
[8]
  viability, T/C: 56.5%
[9]
  viability, T/C: 55%
[10]
  viability, T/C: 55.4%
[11]
  viability, T/C: 55.2%
[12]
  viability, T/C: 60.8%
[13]
  viability, T/C: 33.6%
[14]
  viability, T/C: 38.1%
[15]
  viability, T/C: 36.3%
[16]
  viability, T/C: 37.1%
[17]
  viability, T/C: 37%
[18]
  viability, T/C: 35.8%
[19]
  viability, T/C: 20.3%
[20]
  viability, T/C: 23.1%
[21]
  viability, T/C: 19.3%
[22]
  viability, T/C: 23.8%
[23]
  viability, T/C: 22.7%
[24]
  viability, T/C: 21.6%
[25]
  viability, T/C: 15.4%
[26]
  viability, T/C: 13.7%
[27]
  viability, T/C: 16.6%
[28]
  viability, T/C: 20%
[29]
  viability, T/C: 17.4%
[30]
  viability, T/C: 16.4%
[31]
  viability, T/C: 14.6%
[32]
  viability, T/C: 14.5%
[33]
  viability, T/C: 14.8%
[34]
  viability, T/C: 14.9%
[35]
  viability, T/C: 14.5%
[36]
  viability, T/C: 13.4%
